Source: US8969356B2, “Compounds useful as inhibitors of ATR kinase” (Vertex Pharmaceuticals Incorporated, priority 2010, dated 2015)

molecular target: T1, ATR kinase (Homo sapiens, UniProt Q13535); assay: ATR Inhibition Assay (radioactive-phosphate incorporation); format: biochemical; conditions: not given
T1 construct: Assays were carried out at 25° C. in the presence of 5 nM full-length ATR
Experimental: Compounds were screened for their ability to inhibit ATR kinase using a radioactive-phosphate incorporation assay. Assays were carried out in a mixture of 50 mM Tris/HCl (pH 7.5), 10 mM MgCl2 and 1 mM DTT. Final substrate concentrations were 10 μM [γ-33P]ATP (3mCi 33P ATP/mmol ATP, Perkin Elmer) and 800 μM target peptide ([…] (SEQ. ID NO: 1)).
Assays were carried out at 25° C. in the presence of 5 nM full-length ATR. An assay stock buffer solution was prepared containing all of the reagents listed above, with the exception of ATP and the test compound of interest. 13.5 μL of the stock solution was placed in a 96 well plate followed by addition of 2 μL of DMSO stock containing serial dilutions of the test compound (typically starting from a final concentration of 15 μM with 3-fold serial dilutions) in duplicate (final DMSO concentration 7%). The plate was pre-incubated for 10 minutes at 25° C. and the reaction initiated by addition of 15 μL [γ-33P]ATP (final concentration 10 μM).
The reaction was stopped after […] by the addition of 30 μL 0.1M phosphoric acid containing 2 mM ATP. A multiscreen phosphocellulose filter 96-well plate (Millipore, Cat no. MAPHN0B50) was pretreated with 100 μL 0.2M phosphoric acid prior to the addition of 45 μL of the stopped assay mixture. The plate was washed with 5×200 μL 0.2M phosphoric acid. After drying, 100 μL Optiphase ‘SuperMix’ liquid scintillation cocktail (Perkin Elmer) was added to the well prior to scintillation counting (1450 Microbeta Liquid Scintillation Counter, Wallac).
After removing mean background values for all of the data points, Ki(app) data were calculated from non-linear regression analysis of the initial rate data using the Prism software package (GraphPad Prism version 3.0cx for Macintosh, GraphPad Software, San Diego Calif., USA).

T1 sequence (Q13535 whole entry): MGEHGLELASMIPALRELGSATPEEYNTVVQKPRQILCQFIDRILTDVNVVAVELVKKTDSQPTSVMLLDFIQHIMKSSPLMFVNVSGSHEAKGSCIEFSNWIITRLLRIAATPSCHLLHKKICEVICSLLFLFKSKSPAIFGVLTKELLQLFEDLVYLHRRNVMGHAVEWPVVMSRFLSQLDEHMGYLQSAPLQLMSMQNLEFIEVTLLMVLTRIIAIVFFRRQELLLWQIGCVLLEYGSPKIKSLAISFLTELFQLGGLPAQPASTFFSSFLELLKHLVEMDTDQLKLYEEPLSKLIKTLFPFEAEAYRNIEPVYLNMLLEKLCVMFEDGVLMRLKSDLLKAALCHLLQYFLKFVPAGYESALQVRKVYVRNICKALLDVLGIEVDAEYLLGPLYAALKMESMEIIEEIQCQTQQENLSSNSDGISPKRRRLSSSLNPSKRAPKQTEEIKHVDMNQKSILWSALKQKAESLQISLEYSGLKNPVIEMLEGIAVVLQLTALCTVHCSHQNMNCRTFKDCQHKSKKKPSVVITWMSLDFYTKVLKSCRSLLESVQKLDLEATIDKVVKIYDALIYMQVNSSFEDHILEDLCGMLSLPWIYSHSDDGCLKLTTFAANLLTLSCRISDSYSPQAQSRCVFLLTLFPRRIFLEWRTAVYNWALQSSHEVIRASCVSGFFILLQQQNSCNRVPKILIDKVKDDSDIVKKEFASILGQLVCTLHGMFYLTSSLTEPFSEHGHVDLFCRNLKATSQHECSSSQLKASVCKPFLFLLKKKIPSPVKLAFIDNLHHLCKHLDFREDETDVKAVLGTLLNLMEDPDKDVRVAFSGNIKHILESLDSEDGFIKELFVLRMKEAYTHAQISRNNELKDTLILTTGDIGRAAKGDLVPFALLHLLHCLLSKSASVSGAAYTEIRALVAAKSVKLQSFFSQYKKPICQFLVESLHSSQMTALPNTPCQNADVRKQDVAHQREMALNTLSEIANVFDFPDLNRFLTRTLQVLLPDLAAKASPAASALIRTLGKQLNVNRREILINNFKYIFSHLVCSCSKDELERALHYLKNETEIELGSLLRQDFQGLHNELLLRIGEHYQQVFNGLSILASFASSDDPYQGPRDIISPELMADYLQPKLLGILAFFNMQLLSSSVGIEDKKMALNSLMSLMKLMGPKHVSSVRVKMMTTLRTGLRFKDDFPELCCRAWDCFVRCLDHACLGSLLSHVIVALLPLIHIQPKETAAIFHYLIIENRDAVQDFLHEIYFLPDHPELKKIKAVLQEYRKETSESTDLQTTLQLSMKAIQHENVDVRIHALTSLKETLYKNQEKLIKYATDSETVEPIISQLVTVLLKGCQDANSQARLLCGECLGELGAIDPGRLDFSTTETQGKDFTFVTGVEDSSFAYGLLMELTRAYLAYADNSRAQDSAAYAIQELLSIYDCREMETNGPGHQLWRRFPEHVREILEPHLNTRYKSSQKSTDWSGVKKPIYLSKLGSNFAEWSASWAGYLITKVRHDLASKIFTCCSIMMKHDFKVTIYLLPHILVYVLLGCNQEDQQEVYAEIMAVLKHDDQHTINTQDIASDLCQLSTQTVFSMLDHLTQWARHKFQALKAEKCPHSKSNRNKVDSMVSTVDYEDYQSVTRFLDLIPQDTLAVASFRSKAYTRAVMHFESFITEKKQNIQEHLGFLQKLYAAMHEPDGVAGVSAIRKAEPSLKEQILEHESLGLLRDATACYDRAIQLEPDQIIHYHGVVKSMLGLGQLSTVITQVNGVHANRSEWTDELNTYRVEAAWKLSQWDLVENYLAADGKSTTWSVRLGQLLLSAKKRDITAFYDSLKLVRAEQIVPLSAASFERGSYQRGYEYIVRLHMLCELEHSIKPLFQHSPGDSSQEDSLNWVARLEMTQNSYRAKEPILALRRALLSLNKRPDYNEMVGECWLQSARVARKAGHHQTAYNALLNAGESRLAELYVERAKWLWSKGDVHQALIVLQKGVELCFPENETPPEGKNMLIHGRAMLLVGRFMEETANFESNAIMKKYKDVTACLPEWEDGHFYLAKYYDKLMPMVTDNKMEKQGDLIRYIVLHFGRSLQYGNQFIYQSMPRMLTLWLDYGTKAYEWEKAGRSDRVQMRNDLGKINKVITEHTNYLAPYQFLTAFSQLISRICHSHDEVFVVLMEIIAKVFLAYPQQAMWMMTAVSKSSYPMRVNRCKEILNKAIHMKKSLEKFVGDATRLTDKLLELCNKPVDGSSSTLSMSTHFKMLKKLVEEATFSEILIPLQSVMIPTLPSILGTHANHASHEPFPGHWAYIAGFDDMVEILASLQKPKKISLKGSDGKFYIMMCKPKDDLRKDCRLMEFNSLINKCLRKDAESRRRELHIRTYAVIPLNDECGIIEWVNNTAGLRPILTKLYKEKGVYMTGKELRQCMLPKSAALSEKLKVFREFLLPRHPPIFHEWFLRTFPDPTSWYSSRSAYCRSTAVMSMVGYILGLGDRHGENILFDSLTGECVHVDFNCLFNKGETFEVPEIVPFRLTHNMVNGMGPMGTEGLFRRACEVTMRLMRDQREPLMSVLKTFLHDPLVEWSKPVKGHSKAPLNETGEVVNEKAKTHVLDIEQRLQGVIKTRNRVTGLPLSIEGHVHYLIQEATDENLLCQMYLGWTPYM

`CC(C)S(=O)(=O)c1ccc(-c2cnc(N)c(C#Cc3cccc(F)c3)n2)cc1` [Compound I-1, 3-[2-(3-Fluorophenyl)ethynyl]-5-(4-isopropylsulfonylphenyl)pyrazin-2-amine] was tested. Which Ki did it give?
Its Ki is ≤ 100 nM.

Which Ki does the source give for `CC(C)S(=O)(=O)c1ccc(-c2cnc(N)c(C#Cc3cccc(OCCN(C)C)c3)n2)cc1` [Compound I-26, 3-[2-[3-(2-Dimethylaminoethyloxy)phenyl]ethynyl]-5-(4-isopropylsulfonylphenyl)pyrazin-2-amine] here?
The Ki was 100 to 1000 nM.

With `COc1cccc(C#Cc2nc(-c3ccc(S(=O)(=O)C(C)C)cc3)cnc2N)c1` [Compound I-3, 5-(4-Isopropylsulfonylphenyl)-3-[2-(3-methoxyphenyl)ethynyl]pyrazin-2-amine] as the compound, how does the Ki read?
The Ki was ≤ 100 nM.

`CC(C)S(=O)(=O)c1ccc(-c2cnc(N)c(C#Cc3ccccc3N3CCNCC3)n2)cc1` [Compound I-43, 5-(4-(isopropylsulfonyl)phenyl)-3-((2-(piperazin-1-yl)phenyl)ethynyl)pyrazin-2-amine] was tested. Which Ki did it give?
Its Ki is ≤ 100 nM.

How did the Ki turn out when `CC(C)S(=O)(=O)c1ccc(-c2cnc(N)c(C#Cc3ccccc3Cl)n2)cc1` [Compound I-12, 3-[2-(2-Chlorophenyl)ethynyl]-5-(4-isopropylsulfonylphenyl)pyrazin-2-amine] was run?
The Ki was ≤ 100 nM.

Which Ki does the source give for `CC(C)S(=O)(=O)c1ccc(-c2cnc(N)c(C#Cc3cncn3C)n2)cc1` [Compound I-39] here?
The Ki was ≤ 100 nM.

Which Ki does the source give for `CC(C)S(=O)(=O)c1ccc(-c2cnc(N)c(C#Cc3cccnc3)n2)cc1` [Compound I-13, 5-(4-Isopropylsulfonylphenyl)-3-[2-(3-pyridyl)ethynyl]pyrazin-2-amine] here?
The Ki was ≤ 100 nM.

With `CC(C)S(=O)(=O)c1ccc(-c2cnc(N)c(C#Cc3cccc(OCCCN)c3)n2)cc1` [Compound I-24, 3-[2-[3-(3-Aminopropoxy)phenyl]ethynyl]-5-(4-isopropylsulfonylphenyl)pyrazin-2-amine] as the compound, how does the Ki read?
The Ki was ≤ 100 nM.

Which Ki does the source give for `CC(C)S(=O)(=O)c1ccc(-c2cnc(N)c(C#Cc3cccc(NC(=O)CN)c3)n2)cc1` [Compound I-49, 2-amino-N-(3-((3-amino-6-(4-(isopropylsulfonyl)phenyl)pyrazin-2-yl)ethynyl)phenyl)acetamide] here?
Its Ki is ≤ 100 nM.

`CC(C)S(=O)(=O)c1ccc(-c2cnc(N)c(C#CC3CC3)n2)cc1` [Compound I-27, 3-(2-Cyclopropylethynyl)-5-(4-isopropylsulfonylphenyl)pyrazin-2-amine] was tested. Which Ki did it give?
Its Ki is 100 to 1000 nM.

Which Ki does the source give for `CC(C)S(=O)(=O)c1ccc(-c2cnc(N)c(C#Cc3ccsc3)n2)cc1` [Compound I-31, 5-(4-Isopropylsulfonylphenyl)-3-[2-(3-thienyl)ethynyl]pyrazin-2-amine] here?
Its Ki is 100 to 1000 nM.

`CC(C)S(=O)(=O)c1ccc(-c2cnc(N)c(C#Cc3cccc(OCCN)c3)n2)cc1` [Compound I-25, 3-[2-[3-(2-Aminoethoxy)phenyl]ethynyl]-5-(4-isopropylsulfonylphenyl)pyrazin-2-amine] was tested. Which Ki did it give?
The Ki was ≤ 100 nM.

With `CNCc1cccc(C#Cc2nc(-c3ccc(S(=O)(=O)C(C)C)cc3)cnc2N)c1` [Compound I-28, 5-(4-Isopropylsulfonylphenyl)-3-[2-[3-(methylaminomethyl)phenyl]ethynyl]pyrazin-2-amine] as the compound, how does the Ki read?
The Ki was ≤ 100 nM.

`C#Cc1nc(-c2ccc(S(=O)(=O)C(C)C)cc2)cnc1N` [Compound I-5, 3-Ethynyl-5-(4-isopropylsulfonylphenyl)pyrazin-2-amine] was tested. Which Ki did it give?
Its Ki is 100 to 1000 nM.

How did the Ki turn out when `CC(C)S(=O)(=O)c1ccc(-c2cnc(N)c(C#Cc3cc(Cl)cc(CO)c3)n2)cc1` [Compound I-48, (3-((3-amino-6-(4-(isopropylsulfonyl)phenyl)pyrazin-2-yl)ethynyl)-5-chlorophenyl)methanol] was run?
The Ki was ≤ 100 nM.

With `CC(C)S(=O)(=O)c1ccc(-c2cnc(N)c(C#Cc3ccc(C(O)CN)cc3)n2)cc1` (stereo not shown) [Compound I-42, 2-amino-1-(4-((3-amino-6-(4-(isopropylsulfonyl)phenyl)pyrazin-2-yl)ethynyl)phenyl)ethanol] as the compound, how does the Ki read?
The Ki was ≤ 100 nM.

With `CC(C)S(=O)(=O)c1ccc(-c2cnc(N)c(C#Cc3cccc(Cl)c3)n2)cc1` [Compound I-9, 3-[2-(3-Chlorophenyl)ethynyl]-5-(4-isopropylsulfonylphenyl)pyrazin-2-amine] as the compound, how does the Ki read?
The Ki was ≤ 100 nM.

Which Ki does the source give for `CC(C)S(=O)(=O)c1ccc(-c2cnc(N)c(C#C[C@H](C)O)n2)cc1` [Compound I-29, (2S)-4-[3-Amino-6-(4-isopropylsulfonylphenyl)pyrazin-2-yl]but-3-yn-2-ol] here?
The Ki was 1000 to 13000 nM.

How did the Ki turn out when `CC(C)S(=O)(=O)c1ccc(-c2cnc(N)c(C#Cc3cccc(C(N)=O)c3)n2)cc1` [Compound I-37, 3-[2-[3-Amino-6-(4-isopropylsulfonylphenyl)pyrazin-2-yl]ethynyl]benzamide] was run?
The Ki was ≤ 100 nM.

`CC(C)S(=O)(=O)c1ccc(-c2cnc(N)c(C#Cc3cccc4ccccc34)n2)cc1` [Compound I-2, 5-(4-Isopropylsulfonylphenyl)-3-[2-(1-naphthyl)ethynyl]pyrazin-2-amine] was tested. Which Ki did it give?
Its Ki is ≤ 100 nM.

Which Ki does the source give for `CC(C)n1cc(-c2cnc(N)c(C#Cc3cccc(O)c3)n2)ccc1=O` [Compound I-16, 5-[5-Amino-6-[2-(3-hydroxyphenyl)ethynyl]pyrazin-2-yl]-1-isopropyl-pyridin-2-one] here?
The Ki was ≤ 100 nM.

`CC(C)S(=O)(=O)c1ccc(-c2cnc(N)c(C#Cc3ccncc3)n2)cc1` [Compound I-32, 5-(4-Isopropylsulfonylphenyl)-3-[2-(4-pyridyl)ethynyl]pyrazin-2-amine] was tested. Which Ki did it give?
The Ki was ≤ 100 nM.

With `CC(C)S(=O)(=O)c1ccc(-c2cnc(N)c(C#Cc3ccc(F)cc3)n2)cc1` [Compound I-14, 3-[2-(4-Fluorophenyl)ethynyl]-5-(4-isopropylsulfonylphenyl)pyrazin-2-amine] as the compound, how does the Ki read?
Its Ki is ≤ 100 nM.

With `CCC(=O)N1CC=C(c2cnc(N)c(C#Cc3cccc(O)c3)n2)CC1` [Compound I-30, 1-[4-[5-Amino-6-[2-(3-hydroxyphenyl)ethynyl]pyrazin-2-yl]-3,6-dihydro-2H-pyridin-1-yl]propan-1-one] as the compound, how does the Ki read?
The Ki was ≤ 100 nM.

`CC(C)S(=O)(=O)c1ccc(-c2cnc(N)c(C#CCc3ccccc3)n2)cc1` [Compound I-10, 5-(4-isopropylsulfonylphenyl)-3-(3-phenylprop-1-ynyl)pyrazin-2-amine] was tested. Which Ki did it give?
Its Ki is 1000 to 13000 nM.

Which Ki does the source give for `CC(C)S(=O)(=O)c1ccc(-c2cnc(N)c(C#Cc3cccc(OCCN4CCOCC4)c3)n2)cc1` [Compound I-36, 5-(4-Isopropylsulfonylphenyl)-3-[2-[3-(2-morpholinoethoxy)phenyl]ethynyl]pyrazin-2-amine] here?
The Ki was 100 to 1000 nM.

How did the Ki turn out when `COc1ccccc1C#Cc1nc(-c2ccc(S(=O)(=O)C(C)C)cc2)cnc1N` [Compound I-19, 5-(4-Isopropylsulfonylphenyl)-3-[2-(2-methoxyphenyl)ethynyl]pyrazin-2-amine] was run?
The Ki was 100 to 1000 nM.

`CC(C)S(=O)(=O)c1ccc(-c2cnc(N)c(C#Cc3ccc(C#N)cc3)n2)cc1` [Compound I-15, 4-[2-[3-Amino-6-(4-isopropylsulfonylphenyl)pyrazin-2-yl]ethynyl]benzonitrile] was tested. Which Ki did it give?
Its Ki is 1000 to 13000 nM.

How did the Ki turn out when `CC(C)S(=O)(=O)c1ccc(-c2cnc(N)c(C#Cc3cccc(N)n3)n2)cc1` [Compound I-41, 3-((6-aminopyridin-2-yl)ethynyl)-5-(4-(isopropylsulfonyl)phenyl)pyrazin-2-amine] was run?
The Ki was ≤ 100 nM.

How did the Ki turn out when `CC(C)S(=O)(=O)c1ccc(-c2cnc(N)c(C#Cc3ccccc3N)n2)cc1` [Compound I-38, 3-((2-aminophenyl)ethynyl)-5-(4-(isopropylsulfonyl)phenyl)pyrazin-2-amine] was run?
The Ki was 100 to 1000 nM.

With `C[S+]([O-])c1ccccc1-c1cnc(N)c(C#Cc2cccc(O)c2)n1` (stereo not shown) [Compound I-23, 3-[2-[3-Amino-6-(2-methylsulfinylphenyl)pyrazin-2-yl]ethynyl]phenol] as the compound, how does the Ki read?
Its Ki is ≤ 100 nM.

With `CC(=O)Nc1cccc(C#Cc2nc(-c3ccc(S(=O)(=O)C(C)C)cc3)cnc2N)c1` [Compound I-6, N-[3-[2-[3-Amino-6-(4-isopropylsulfonylphenyl)pyrazin-2-yl]ethynyl]phenyl]acetamide] as the compound, how does the Ki read?
The Ki was ≤ 100 nM.

`Cc1cccc(C#Cc2nc(-c3ccc(S(=O)(=O)C(C)C)cc3)cnc2N)c1` [Compound I-11, 5-(4-Isopropylsulfonylphenyl)-3-[2-(m-tolyl)ethynyl]pyrazin-2-amine] was tested. Which Ki did it give?
Its Ki is ≤ 100 nM.

With `CC(C)S(=O)(=O)c1ccc(-c2cnc(N)c(C#Cc3ccc4[nH]ncc4c3)n2)cc1` [Compound I-45, 3-((1H-indazol-5-yl)ethynyl)-5-(4-(isopropylsulfonyl)phenyl)pyrazin-2-amine] as the compound, how does the Ki read?
The Ki was ≤ 100 nM.

How did the Ki turn out when `Cc1ccc(O)cc1C#Cc1nc(-c2ccc(S(=O)(=O)C(C)C)cc2)cnc1N` [Compound I-47, 3-((3-amino-6-(4-(isopropylsulfonyl)phenyl)pyrazin-2-yl)ethynyl)-4-methylphenol] was run?
Its Ki is ≤ 100 nM.

How did the Ki turn out when `N#Cc1ccccc1-c1cnc(N)c(C#Cc2cccc(O)c2)n1` [Compound I-18, 2-[5-Amino-6-[2-(3-hydroxyphenyl)ethynyl]pyrazin-2-yl]benzonitrile] was run?
Its Ki is ≤ 100 nM.

same assay, conditions: at 15 uM

With `CC(C)S(=O)(=O)c1ccc(-c2cnc(N)c(C#Cc3ccccc3CO)n2)cc1` [Compound I-46, (2-((3-amino-6-(4-(isopropylsulfonyl)phenyl)pyrazin-2-yl)ethynyl)phenyl)methanol] as the compound, how does the inhibition at 15 µM read?
The inhibition at 15 µM was 30%.
